Laboratory results reported in the NIST ThermoML archive (doi:10.1016/j.jct.2015.01.007).
± gives the expanded uncertainty stated by the source.

Conditions: for molar entropy: 101.33 kPa

O=P([O-])([O-])[O-].[Fe+2].[Li+] [iron(II) lithium phosphate]
molar entropy (5 K, Crystal 2, relaxation calorimetry): 0.0577 ± 0.0068 J/K/mol | molar entropy (10 K, Crystal 2, relaxation calorimetry): 0.1645 ± 0.019 J/K/mol | molar entropy (15 K, Crystal 2, relaxation calorimetry): 0.5534 ± 0.065 J/K/mol | molar entropy (20 K, Crystal 2, relaxation calorimetry): 1.241 ± 0.15 J/K/mol | molar entropy (25 K, Crystal 2, relaxation calorimetry): 2.309 ± 0.14 J/K/mol | molar entropy (30 K, Crystal 2, relaxation calorimetry): 3.785 ± 0.23 J/K/mol | molar entropy (35 K, Crystal 2, relaxation calorimetry): 5.708 ± 0.35 J/K/mol | molar entropy (40 K, Crystal 2, relaxation calorimetry): 8.078 ± 0.49 J/K/mol | molar entropy (42 K, Crystal 2, relaxation calorimetry): 9.158 ± 0.56 J/K/mol | molar entropy (45 K, Crystal 2, relaxation calorimetry): 10.96 ± 0.67 J/K/mol | molar entropy (46 K, Crystal 2, relaxation calorimetry): 11.63 ± 0.71 J/K/mol | molar entropy (47 K, Crystal 2, relaxation calorimetry): 12.33 ± 0.75 J/K/mol | molar entropy (48 K, Crystal 2, relaxation calorimetry): 13.07 ± 0.8 J/K/mol | molar entropy (49 K, Crystal 2, relaxation calorimetry): 13.86 ± 0.84 J/K/mol | molar entropy (49.24 K, Crystal 1, combination of DSC and relaxation calorimetry): 14.06 ± 0.86 J/K/mol | molar entropy (49.24 K, Crystal 2, relaxation calorimetry): 14.06 ± 0.86 J/K/mol | molar entropy (50 K, Crystal 1, combination of DSC and relaxation calorimetry): 14.7 ± 0.9 J/K/mol | molar entropy (51 K, Crystal 1, combination of DSC and relaxation calorimetry): 15.21 ± 0.93 J/K/mol | molar entropy (52 K, Crystal 1, combination of DSC and relaxation calorimetry): 15.67 ± 0.95 J/K/mol | molar entropy (53 K, Crystal 1, combination of DSC and relaxation calorimetry): 16.11 ± 0.98 J/K/mol | molar entropy (54 K, Crystal 1, combination of DSC and relaxation calorimetry): 16.53 ± 1 J/K/mol | molar entropy (55 K, Crystal 1, combination of DSC and relaxation calorimetry): 16.95 ± 1 J/K/mol | molar entropy (60 K, Crystal 1, combination of DSC and relaxation calorimetry): 19.01 ± 1.2 J/K/mol | molar entropy (65 K, Crystal 1, combination of DSC and relaxation calorimetry): 21.09 ± 1.3 J/K/mol | molar entropy (70 K, Crystal 1, combination of DSC and relaxation calorimetry): 23.23 ± 1.4 J/K/mol | molar entropy (80 K, Crystal 1, combination of DSC and relaxation calorimetry): 27.71 ± 1.7 J/K/mol | molar entropy (90 K, Crystal 1, combination of DSC and relaxation calorimetry): 32.41 ± 2 J/K/mol | molar entropy (100 K, Crystal 1, combination of DSC and relaxation calorimetry): 37.27 ± 2.3 J/K/mol | molar entropy (110 K, Crystal 1, combination of DSC and relaxation calorimetry): 42.25 ± 2.6 J/K/mol | molar entropy (120 K, Crystal 1, combination of DSC and relaxation calorimetry): 47.28 ± 2.9 J/K/mol | molar entropy (130 K, Crystal 1, combination of DSC and relaxation calorimetry): 52.34 ± 3.2 J/K/mol | molar entropy (140 K, Crystal 1, combination of DSC and relaxation calorimetry): 57.41 ± 3.5 J/K/mol | molar entropy (150 K, Crystal 1, combination of DSC and relaxation calorimetry): 62.46 ± 3.8 J/K/mol | molar entropy (160 K, Crystal 1, combination of DSC and relaxation calorimetry): 67.48 ± 4.1 J/K/mol | molar entropy (170 K, Crystal 1, combination of DSC and relaxation calorimetry): 72.46 ± 4.4 J/K/mol | molar entropy (180 K, Crystal 1, combination of DSC and relaxation calorimetry): 77.39 ± 4.7 J/K/mol | molar entropy (190 K, Crystal 1, combination of DSC and relaxation calorimetry): 82.26 ± 5 J/K/mol | molar entropy (200 K, Crystal 1, combination of DSC and relaxation calorimetry): 87.07 ± 5.3 J/K/mol | molar entropy (210 K, Crystal 1, combination of DSC and relaxation calorimetry): 91.83 ± 5.6 J/K/mol | molar entropy (220 K, Crystal 1, combination of DSC and relaxation calorimetry): 96.51 ± 5.9 J/K/mol | molar entropy (230 K, Crystal 1, combination of DSC and relaxation calorimetry): 101.1 ± 6.2 J/K/mol | molar entropy (240 K, Crystal 1, combination of DSC and relaxation calorimetry): 105.7 ± 6.4 J/K/mol | molar entropy (250 K, Crystal 1, combination of DSC and relaxation calorimetry): 110.2 ± 6.7 J/K/mol | molar entropy (260 K, Crystal 1, combination of DSC and relaxation calorimetry): 114.6 ± 7 J/K/mol | molar entropy (270 K, Crystal 1, combination of DSC and relaxation calorimetry): 119 ± 7.3 J/K/mol | molar entropy (280 K, Crystal 1, combination of DSC and relaxation calorimetry): 123.3 ± 7.5 J/K/mol | molar entropy (290 K, Crystal 1, combination of DSC and relaxation calorimetry): 127.5 ± 7.8 J/K/mol | molar entropy (298.15 K, Crystal 1, combination of DSC and relaxation calorimetry): 130.9 ± 8 J/K/mol | molar entropy (300 K, Crystal 1, combination of DSC and relaxation calorimetry): 131.7 ± 8 J/K/mol | molar entropy (320 K, Crystal 1, combination of DSC and relaxation calorimetry): 139.9 ± 8.5 J/K/mol | molar entropy (340 K, Crystal 1, combination of DSC and relaxation calorimetry): 147.9 ± 9 J/K/mol | molar entropy (360 K, Crystal 1, combination of DSC and relaxation calorimetry): 155.6 ± 9.5 J/K/mol | molar entropy (380 K, Crystal 1, combination of DSC and relaxation calorimetry): 163.1 ± 9.9 J/K/mol | molar entropy (400 K, Crystal 1, combination of DSC and relaxation calorimetry): 170.5 ± 10 J/K/mol | molar entropy (420 K, Crystal 1, combination of DSC and relaxation calorimetry): 177.6 ± 11 J/K/mol | molar entropy (440 K, Crystal 1, combination of DSC and relaxation calorimetry): 184.6 ± 11 J/K/mol | molar entropy (460 K, Crystal 1, combination of DSC and relaxation calorimetry): 191.4 ± 12 J/K/mol | molar entropy (480 K, Crystal 1, combination of DSC and relaxation calorimetry): 198 ± 12 J/K/mol | molar entropy (500 K, Crystal 1, combination of DSC and relaxation calorimetry): 204.4 ± 12 J/K/mol | molar entropy (520 K, Crystal 1, combination of DSC and relaxation calorimetry): 210.8 ± 13 J/K/mol | molar entropy (540 K, Crystal 1, combination of DSC and relaxation calorimetry): 216.9 ± 13 J/K/mol | molar entropy (560 K, Crystal 1, combination of DSC and relaxation calorimetry): 223 ± 14 J/K/mol | molar entropy (580 K, Crystal 1, combination of DSC and relaxation calorimetry): 228.9 ± 14 J/K/mol | molar entropy (600 K, Crystal 1, combination of DSC and relaxation calorimetry): 234.6 ± 14 J/K/mol | molar entropy (620 K, Crystal 1, combination of DSC and relaxation calorimetry): 240.3 ± 15 J/K/mol | molar entropy (640 K, Crystal 1, combination of DSC and relaxation calorimetry): 245.8 ± 15 J/K/mol | molar entropy (660 K, Crystal 1, combination of DSC and relaxation calorimetry): 251.2 ± 15 J/K/mol | molar entropy (680 K, Crystal 1, combination of DSC and relaxation calorimetry): 256.5 ± 16 J/K/mol | molar entropy (700 K, Crystal 1, combination of DSC and relaxation calorimetry): 261.8 ± 16 J/K/mol | molar entropy (720 K, Crystal 1, combination of DSC and relaxation calorimetry): 266.9 ± 16 J/K/mol | molar entropy (740 K, Crystal 1, combination of DSC and relaxation calorimetry): 271.9 ± 17 J/K/mol | molar entropy (760 K, Crystal 1, combination of DSC and relaxation calorimetry): 276.8 ± 17 J/K/mol | Triple point temperature (Crystal 2, Relaxation calorimeter): 49.24 ± 0.77 K
